Experimental data reported in patent publication US8097252B2, “Methods and compositions for administering therapeutic and diagnostic agents” (Immunomedics, Inc., priority 2003, dated 2012).
Starred links: 1 amine or outer side, 2 acyl side, 3 side chain; linkers in the order of their positions; H or OH if unused. Non-standard residues stand in square brackets, D forms with d. Residues, ends and D or L forms follow the SMILES beside them. Groups on a side chain read outwards from the residue. *: point of attachment. DTPA = O=C(O)CN(CCN(CC(=O)O)CC(=O)O)CCN(CC(=O)O)CC(=O)*; NH(2-(imidazol-4-yl)ethyl) = c1ncc(CCN*)[nH]1; Suc = O=C(CCC(=O)[*:2])[*:1]

What was measured:
[1] = Stability of 111In IMP 272 in fresh human serum; type: in vitro ADME; settings: 37° C.
Experimental: (§1) ^111InCl3 (30.4 μL) was added to 500 μL of DI H2O. This solution was added to the prepared vial of IMP 272 and allowed to sit for approximately 20 minutes at room temperature. An additional 600 μL of cold In Acetate Buffer (1.0×10^−4M InCl3, 0.5M NaOAc, pH 6.5) was then added to the same vial and allowed to sit for an additional 45 minutes. The total volume was 1130 μL with a molar quantity of […] of IMP 272 yielding a concentration of 8.777×10^−6M. After the labeling was completed, the peptide was tested for stability in fresh human and nude mouse serum over 24 hrs. The peptide was also tested for binding to humanized antibodies; m679×hMN14, and, m734×hMN14.
^111In IMP 272, 60 μL, was added to 540 μL fresh human serum. This was vortexed and placed under a constant temperature of 37° C. The peptide concentration for this mixture was 8.777×10^−7M.

[2] = Stability of 111In IMP 272 in fresh nude mouse serum; type: in vitro ADME; settings: 37° C., 24 hr
Experimental: as §1
^111In IMP 272, 44 μL, was added to 400 μl fresh nude mouse serum. This was vortexed and placed under a constant temperature of 37° C. The peptide concentration for this mixture was 8.698×10^−7M.

[3] = Biodistribution in nude mice bearing GW-39 xenografts (lock and chase); type: in vivo; settings: mouse, tumor (GW-39 xenograft), iv, 76 ng, total radioactivity, 3 hrs post-IMP-272, assumption, read-out: amount in tumor
Experimental: To study the half-life of a pretargeted defined chemical substance (DCS), known as IMP-272 on a tumor, the following experiment is performed in nude mice bearing GW-39 human colorectal cancer xenografts. Animals receive three injections as follows: first injection of anti-CEA BS1.5HP diabody (hMN-14×679) followed 24 hours later with IMP-272, which is followed 3 hours later by the anti-In-DTPA F(ab′)2 antibody, 734. BS1.5HP is labeled with ^125I and the IMP-272 is labeled with ^111In. The synthesis and use of this diabody is disclosed in Clin. Cancer Res. 9:3886s-3896s (2003), and is herein incorporated in its entirety by reference. Known standard molecular biology methods were used to prepare the BS1.5HP
To test for maximum cross-linking of peptide on the surface of the tumor, the total protein dose of 734 F(ab′)2 injected ranges from 10 μg to 100 μg. Four groups of mice are administered 10 μCi ^125I-BS1.5HP (27 μg, 5.0×10^−10 moles) followed 24 hours later by 25 μCi ^111In-IMP-272 (5.0×10^−11 moles) for a bispecific:IMP-272 ratio of 10:1. IMP-272 is administered 3 hours before the administration of 734 F(ab′)2 to target the tumor and clear from the blood. […]
At the specified necropsy time, 5 animals are anesthetized, bled by cardiac puncture followed by cervical dislocation. […] Tissues is counted in a calibrated gamma counter for ^111In and ^125I. […]

[4] = tested on: B-cell lymphoma; assay: Therapy of B-cell lymphoma patient with internalization by cross-linking; type: in vivo
Experimental: A patient having B-cell lymphoma with extensive node involvement is infused intraveneously with a sterile, pyrogen-free solution containing a target dose of bispecific hA20Fab-679scFv prepared as described in U.S. application Ser. Nos. 09/337,756 and 60/360,229. After 24 hours, the patient then is infused intraveneously with a sterile, pyrogen-free PBS solution that contains a therapeutic dose of DTPA-Gln-Ala-Lys(HSG)-D-[I-131Tyr]-Lys(HSG)-NH2. After 24 hours the patient then is intraveneously infused with 50 mg of sterile, pyrogen-free PBS solution of bispecific hLL1IgG[734scFv]. […] This administration is illustrated schematically in FIG. 6-9.

Row | stability in human serum (conclusion) [1] | peptide state after incubation in human serum ([1]; 1 hour) | binding to HSG after incubation in human serum ([1]; 24 hr) | binding to one of the two HSG's compromised ([1]; 24 hr, size exclusion HPLC) | stability in mouse serum [2] | tissue uptake at 3 h [3] | Compound | size of the lymphoma-involved nodes ([4]; CAT scans over the next few months) | localization and retention of I-131 in lymphoma involved nodes ([4]; radioimmunodetection)
1 | partially metabolized | intact | lost some of the binding to HSG | about 50% | stable | ~20 %ID/g | C[C@H](NC(=O)[C@H](CCC(N)=O)NC(=O)CN(CCN(CCN(CC(=O)O)CC(=O)O)CC(=O)O)CC(=O)O)C(=O)N[C@@H](CCCCNC(=O)CNC(=O)CCC(=O)NCCc1c[nH]cn1)C(=O)N[C@H](Cc1ccc(O)cc1)C(=O)N[C@@H](CCCCNC(=O)CNC(=O)CCC(=O)NCCc1c[nH]cn1)C(N)=O (111In complex, metal not drawn) [IMP 272, DTPA-Gln-Ala-Lys(HSG)-D-Tyr-Lys(HSG)-NH2] ({DTPA}-QAK([Gly-Suc-NH(2-(imidazol-4-yl)ethyl)])[dY]K([Gly-Suc-NH(2-(imidazol-4-yl)ethyl)])-NH2) | – | –
2 | – | – | – | – | – | – | DTPA-Gln-Ala-Lys(HSG)-D-[I-131Tyr]-Lys(HSG)-NH2 | significant reduction | intensive localization and long retention
